Measured values published in patent publication US20250144267A1, “USE OF POLYSACCHARIDE DERIVATIVE” (priority 2022, published 2025).
Entries after “also recorded” stand apart in the source; their conditions may differ.

What was measured:
[1] = tested on: MeT-5A (human mesothelial cell line); assay: Cell toxicity evaluation (WST assay) of HA-ABA-PMX in MeT-5A; type: cell-based; conditions: PMX 10^−4 to 10 μg/mL, 48 hours
Procedure: (§1) As with the HA-ABA, the cell toxicity of HA-ABA-PMX in MeT-5A (human mesothelial cell line) and AB22 cells (mouse mesothelioma cells) was evaluated by WST assay.
(§2) Specifically, MeT-5A (human mesothelial cell line) and AB22 cells (mouse mesothelioma cells) were seeded on 24-well plates and incubated for 24 hours. The medium was then replaced with medium having HA-ABA-PMX dissolved at different PMX concentrations (10^−4 μg/mL, 10^−3 μg/mL, 10^−2 μg/mL, 10^−1 μg/mL, 1 μg/mL, 10 μg/mL). Cell viability (%) 48 hours after sample addition was then measured by WST-8 assay (Cell Counting Kit-8, Dojindo).
(§3) For purposes of comparison as a control test, cell toxicity was also evaluated using free PMX and HA-ADH-PMX in place of HA-ABA-PMX.

[2] = Release test of PMX from HA-ABA-PMX (dialysis tube, PBS); type: physicochemical
Procedure: The release behavior or PMX from HA-ABA-PMX at different pH values was investigated using a dialysis tube (MWCO: 1 kDa). 1 mL of an aqueous solution of the HA-ABA-PMX (1 mg/mL) obtained in Example II-2 above was placed in a dialysis tube, and shaken at 50 rpm while being incubated with 79 mL of PBS (37° C., pH=5.0, 6.0 7.4). The external solution (sustained release solution) was collected at specific time points, and new PBS was substituted for the entire amount. The drug concentration in the collected external solution (sustained release solution) was measured by UV-vis, and the release rate of the drug PMX was calculated.
For purposes of comparison as control tests, the same release test was also performed with the HA-ABA-PMX solution replaced by an aqueous solution of PMX (0.12 mg/mL) (Free PMX), a mixed solution of HA and PMX obtained by dissolving hyaluronic acid (HA) (1 mg/mL) and PMX (0.12 mg/mL) in water (Free PMX mixed with HA), and an aqueous solution of HA-ADH-PMX having the HA bound irreversibly to the PMX by amide bonds.

[3] = tested on: AB22 cells (mouse mesothelioma cells); assay: Cell toxicity evaluation (WST assay) of HA-ABA-PMX in AB22; type: cell-based; conditions: PMX 10^−4 to 10 μg/mL, 48 hours
Procedure: as §1, §2, §3

[4] = Release test of Van from AL-ABA-Van solution (dialysis membrane, PBS); type: physicochemical; conditions: PBS pH 5.0, 6.0, 7.4, 37°C
Procedure: The release behavior or Van from an AL-ABA-Van solution at different pH values was investigated using a dialysis membrane (pore size: 50 kDa). Specifically, 1 mL of an AL-ABA-Van solution of the AL-ABA-Van obtained in Example I-7 above dissolved in 3 mg/mL of pure water was injected into a dialysis membrane cut to 9 cm, and both ends of the dialysis membrane were tied with kite thread. This was placed in an 80 mL security container, 79 mL of PBS solution was added, and the mixture was stirred at the maximum rotational speed with a 1 cm stirrer tip in a 37° C. thermostatic tank. 1.0 mL samples were taken from the solution in the security container at specific time points (1, 2, 3, 4, 6, 8, 12, 24, and 48 hours). The sample solutions were subjected to UV-vis spectrum measurement, the drug concentration in the solutions was assayed based on absorbance, and the release rate of the drug Van (vancomycin release %) was calculated. The above measurements were conducted with pH 5.0, pH 6.0 and pH 7.4 PBS solutions (n=4 at each pH). […]

[5] = tested on: AB22 cells (mouse mesothelioma cells); assay: Cell toxicity evaluation (WST assay) of HA-ABA-DOX in AB22; type: cell-based; conditions: DOX 10^−3 to 100 μg/mL, 48 hours
Procedure: As with the HA-ABA, the cell toxicity of HA-ABA-DOX in AB22 cells (mouse mesothelioma cells) was evaluated by WST assay.
Specifically, AB22 cells (mouse mesothelioma cells) were seeded on 24-well plates and incubated for 24 hours. The medium was then replaced with media having HA-ABA-PMX dissolved at different DOX concentrations (10^−3 μg/mL, 10^−2 μg/mL, 10^−1 μg/mL, 1 μg/mL, 10 μg/mL, 100 μg/mL). Cell viability (%) 48 hours after sample addition was then measured by WST-8 assay (Cell Counting Kit-8, Dojindo).
For purposes of comparison as a control test, cell toxicity was also evaluated using free DOX in place of HA-ABA-DOX.

Nc1nc2[nH]cc(CCc3ccc(C(=O)N[C@@H](CCC(=O)O)C(=O)O)cc3)c2c(=O)[nH]1 [Free PMX, Pemetrexed, reference compound]
Cell growth inhibition effect (cell viability) [1]: dose-dependent cell growth inhibition effects
PMX release behavior ([2]; PBS, 37°C): almost all of the PMX was rapidly released within 2 hours
Cell growth inhibition effect (cell viability) [3]: dose-dependent cell growth inhibition effects

CN[C@H](CC(C)C)C(=O)N[C@H]1C(=O)N[C@@H](CC(N)=O)C(=O)N[C@H]2C(=O)N[C@H]3C(=O)N[C@H](C(=O)N[C@H](C(=O)O)c4cc(O)cc(O)c4-c4cc3ccc4O)[C@H](O)c3ccc(c(Cl)c3)Oc3cc2cc(c3O[C@@H]2O[C@H](CO)[C@@H](O)[C@H](O)[C@H]2O[C@H]2C[C@](C)(N)[C@H](O)[C@H](C)O2)Oc2ccc(cc2Cl)[C@H]1O [Van, Vancomycin]
Van release behavior [4]: almost all of the Van was released in the first 10 hours

COc1cccc2c1C(=O)c1c(O)c3c(c(O)c1C2=O)C[C@@](O)(C(=O)CO)C[C@@H]3O[C@H]1C[C@H](N)[C@H](O)[C@H](C)O1 [free DOX, Doxorubicin]
Cell growth inhibition effect (cell viability) [5]: dose-dependent cell growth inhibition effects on AB22

benzaldehyde-modified hyaluronic acid-pemetrexed conjugate [HA-ABA-PMX]
Cell growth inhibition effect (cell viability) [1]: dose-dependent cell growth inhibition effects; also recorded: reduced cell viability at lower concentrations than the free PMX and the HA-ADH-PMX
PMX released (cumulative drug release) ([2]; PBS pH 5.0, 37°C, after 24 hours): more than 80%
PMX not released ([2]; PBS pH 7.4, 37°C, after 24 hours): 40%
Cell growth inhibition effect (cell viability) [3]: dose-dependent cell growth inhibition effects; also recorded: reduced cell viability at lower concentrations than the free PMX and the HA-ADH-PMX
